The supplement of paper PMC8633005

What was measured:
Assay in all cases: drug sensitivity score (DSS) (DSS (unitless, 0-50 scale)); higher = more sensitive (stronger viability inhibition); extreme values may be limits of the assay
Details in all cases: 72 h; culture: 2D
FM-MEL-2 = system: FM-MEL-2
Summary of the method: (§1)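 A 527-compound oncology library was screened in 384-well plates against melanoma cell lines and patient-derived melanoma cultures grown in 2D, the cultures at 1000–1500 cells per well. Each compound, in DMSO or water, was applied at five concentrations over a 10,000-fold range and incubated for 72 h at 37 °C before CellTiter-Glo luminescence readout of viability. A drug sensitivity score, a modified area-under-curve measure, was calculated from curves fitted in the in-house Breeze software.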

WM852 = system: WM852
Summary of the method: as §1

SK-MEL-28 = system: SK-MEL-28
Summary of the method: as §1

WM165 = system: WM165
Summary of the method: as §1

Bowes = system: Bowes
Summary of the method: as §1

FM-MEL-3 = system: FM-MEL-3
Summary of the method: as §1

FM-MEL-6 = system: FM-MEL-6
Summary of the method: as §1

SK-MEL-2 = system: SK-MEL-2
Summary of the method: as §1

Row | SMILES | drug sensitivity score (FM-MEL-2) | drug sensitivity score (WM852) | drug sensitivity score (SK-MEL-28) | drug sensitivity score (WM165) | drug sensitivity score (Bowes) | drug sensitivity score (FM-MEL-3) | drug sensitivity score (FM-MEL-6) | drug sensitivity score (SK-MEL-2)
1 | CC(C)(C)C[C@@H]1N[C@@H](C(=O)N[C@H]2CC[C@H](O)CC2)[C@H](c2cccc(Cl)c2F)[C@]12C(=O)Nc1cc(Cl)ccc12 | 3.1 | 0 | 0 | 15.9 | 2.2 | 16.6 | 0 | 0
2 | CC(C)(C)c1cc(NC(=O)Nc2ccc(Oc3ccnc4[nH]c(=O)cnc34)cc2F)n(-c2ccccc2)n1 | 11.6 | 5.3 | 10.3 | 12.6 | 10.7 | 14.5 | 4.2 | 4.5
3 | CCOc1ccn(-c2ccc(F)cc2)c(=O)c1C(=O)Nc1ccc(Oc2ccnc(N)c2Cl)c(F)c1 | 0 | 0 | 0 | 0 | 0 | 0 | 0 | 0
4 | CC[C@@H]1[C@H](F)C(=O)N[C@@H]1COc1nccc2cc(C(N)=O)c(OC)cc12 | 1.1 | 0.6 | 0 | 1.7 | 1.4 | 0.2 | 0 | 0
5 | CCc1cncnc1N1CCN(Cc2nc3ccc(C(F)(F)F)cc3[nH]2)CC1 | 0.5 | 3.3 | 0 | 0 | 2.1 | 1.7 | 0.7 | 0
6 | CCn1c(-c2nonc2N)nc2c(C#CC(C)(C)O)ncc(OC[C@H]3CCCNC3)c21 | 1 | 0 | 0 | 3.4 | 1 | 1.8 | 0 | 0
7 | CCn1c(-c2nonc2N)nc2cnc(Oc3cccc(NC(=O)c4ccc(OCCN5CCOCC5)cc4)c3)cc21 | 2.6 | 4.6 | 1.1 | 5.2 | 0 | 4.3 | 0.3 | 0
8 | CCn1c(C(=O)N(C2CC2)C2CC2)cc2c3c(ncn3C)c(Nc3cc(C)n(C)n3)nc21 | 2.3 | 0 | 0.4 | 0 | 0 | 0 | 0.8 | 0
9 | CCn1cc(-c2ccnc3[nH]c(-c4cccc(CN(C)C)c4)cc23)c(-c2ccc(NC(=O)N(C)C)cc2)n1 | 0 | 0 | 0.1 | 6 | 2.7 | 0 | 0 | 0
10 | CN(C)CC#Cc1ccc(OCCCc2sc(N3CCc4cccc(C(=O)Nc5nc6ccccc6s5)c4C3)nc2C(=O)O)c(F)c1 | 4.6 | 0 | 0 | 0.2 | 0.5 | 16.7 | 0.7 | 0
11 | CN(c1ncccc1CNc1nc(Nc2ccc3c(c2)CC(=O)N3)ncc1C(F)(F)F)S(C)(=O)=O | 3 | 5.3 | 4.7 | 9.1 | 6.4 | 7.1 | 5.2 | 0
12 | CN1CCN(C2CCC(n3cc(-c4ccc(Oc5ccccc5)cc4)c4c(N)ncnc43)CC2)CC1 (stereo not given) | 6.6 | 9.2 | 8 | 9.4 | 10.1 | 7.7 | 7.2 | 5
13 | CNC(=O)c1ccc(C)c(-n2c(C)cc(OCc3ccc(F)cc3F)c(Br)c2=O)c1 | 0 | 0 | 0 | 0 | 0 | 0 | 0 | 0
14 | CNC(=O)c1ccccc1Nc1nc(Nc2ccc3c(c2OC)CCC[C@H](N2CCN(CCO)CC2)C3)ncc1Cl | 7.2 | 7.7 | 7.9 | 9.2 | 8.2 | 8.6 | 7.6 | 4.5
15 | CNS(=O)(=O)Nc1nccc(Cc2c(C)c3ccc(Oc4ncccn4)cc3oc2=O)c1F | 6.3 | 0 | 3.2 | 3.2 | 0.6 | 10.7 | 0.2 | 4.2
16 | CNc1nc(-c2ccc3c(N)n[nH]c3c2)cc(N2C[C@@H](C(=O)NC3CCCCC3)CC[C@H]2C)n1 | 1.8 | 0 | 1.5 | 0.4 | 0 | 0 | 0 | 0
17 | CONC(=O)c1ccccc1Nc1cc(Nc2cc(C)nn2C(C)C)ncc1Cl | 0.2 | 0 | 0 | 0.1 | 0.5 | 1.5 | 0 | 0
18 | CO[C@@H](C)Cn1c(=O)n(C)c2cnc3ccc(-c4cncc(C(C)(C)O)c4)cc3c21 | 9.6 | 7.5 | 7.9 | 12 | 10.4 | 8.9 | 9.3 | 7.3
19 | COc1cc2ncnc(Oc3cccc(NC(=O)Nc4cc(C(C)(C)C(F)(F)F)on4)c3)c2cc1OC | 7.6 | 3.3 | 0 | 0 | 0 | 15 | 2 | 0
20 | COc1ccc(Cn2ccc3ccc(C(=O)NO)cc32)cc1 | 0 | 0.6 | 0.2 | 1.6 | 0 | 0.3 | 0 | 0
21 | COc1ccc2[nH]cc(/C=C3\C(=O)Nc4ccc(NC(=O)CCN5CCCCC5)cc43)c2c1 | 12.6 | 11.1 | 8.6 | 8.8 | 5.9 | 5.6 | 5 | 4.6
22 | C[C@@H](Oc1cc(-n2cnc3ccc(CN4CCN(C)CC4)cc32)sc1C(N)=O)c1ccccc1C(F)(F)F | 5 | 22.8 | 8.1 | 25.6 | 27.9 | 1.7 | 10 | 10.1
23 | C[C@@H](Oc1ccc2[nH]nc(/C=C/c3cnn(CCO)c3)c2c1)c1c(Cl)cncc1Cl | 0 | 3.2 | 1.3 | 4.3 | 6 | 2.1 | 2 | 0.3

Row | SMILES | drug sensitivity score (FM-MEL-2) | drug sensitivity score (WM852) | drug sensitivity score (SK-MEL-28) | drug sensitivity score (WM165) | drug sensitivity score (Bowes) | drug sensitivity score (FM-MEL-3) | drug sensitivity score (FM-MEL-6) | drug sensitivity score (SK-MEL-2)
24 | C[C@@H]1CN(CC(=O)Nc2ccc3c(c2)Cc2cccc(-c4cc(=O)cc(N5CCOCC5)o4)c2S3)C[C@H](C)O1 | 1.5 | 2.6 | 3.4 | 1.1 | 2.5 | 1.2 | 1 | 0
25 | C[C@H]1C[C@@H](n2c(Nc3ccc(OC(F)(F)F)cc3)nc3cc(CCC(=O)O)ccc32)CC(C)(C)C1 | 0 | 0 | 0 | 0 | 0 | 4.5 | 0 | 0
26 | C[C@H]1Oc2cc(cnc2N)-c2c(nn(C)c2C#N)CN(C)C(=O)c2ccc(F)cc21 | 0.9 | 0 | 0 | 0.2 | 0.1 | 2.4 | 0.6 | 0
27 | Cc1c(-c2c(-c3ccc(F)o3)sc3ncnc(O[C@H](Cc4ccccc4OCc4ccnn4CC(F)(F)F)C(=O)O)c23)ccc(OCCN2CCN(C)CC2)c1Cl | 3.2 | 0 | 0 | 0 | 16.9 | 8.7 | 1.9 | 5.3
28 | Cc1c(-c2ccc(N3CCc4cccc(C(=O)Nc5nc6ccccc6s5)c4C3)nc2C(=O)O)cnn1CC12CC3CC(CC(C3)C1)C2 | 1.5 | 0 | 0 | 0 | 0 | 6.7 | 0 | 0
29 | Cc1c(Cn2c(C)nc3c(C(=O)O)cc(N4CCOCC4)cc32)cccc1C(F)(F)F | 0 | 0 | 0.3 | 0 | 0 | 0 | 0 | 0
30 | Cc1ccc(C(=O)N(CCCN)[C@@H](c2oc3cc(Cl)ccc3c(=O)c2Cc2ccccc2)C(C)C)cc1 | 3.9 | 4.5 | 0.9 | 4.3 | 7.7 | 2.1 | 5.4 | 10
31 | Cc1cccc(CC(=O)N2CCc3c2ccc(-c2cn(C)c4ncnc(N)c24)c3F)n1 | 0 | 3.7 | 0 | 0 | 0 | 0.9 | 0.1 | 0
32 | Cc1nc(Nc2n[nH]c3c2CN(C(=O)N[C@H](CN(C)C)c2ccccc2)C3(C)C)c2sccc2n1 | 11.8 | 9.9 | 18.4 | 26.9 | 18.6 | 17.5 | 14.8 | 12.3
33 | Cc1nn(C)c(COc2ccc(N3CCN(S(=O)(=O)N(C)C)CC3)cc2)c1-c1cccc2c(CCCOc3cccc4ccccc34)c(C(=O)O)n(CCN3CCOCC3)c12 | 8 | 5.4 | 5.6 | 6.4 | 6.7 | 7.8 | 7.8 | 4.6
34 | Cn1cc(-c2ccc(F)c(C(F)(F)F)c2)nc1C1CCN(c2ncnc3[nH]ncc23)CC1 | 0 | 0 | 0 | 0 | 0 | 0 | 0 | 0
35 | NCC(=O)Nc1ccc(-n2nc(C(F)(F)F)cc2-c2ccc3c(ccc4ccccc43)c2)cc1 | 0.4 | 0 | 2.5 | 3.4 | 0 | 0 | 0.4 | 0
36 | NC[C@@](O)(c1ccc(Cl)cc1)c1ccc(-c2cn[nH]c2)cc1 | 1.4 | 0.6 | 1.7 | 2.1 | 0 | 0 | 4 | 0
37 | Nc1nccc(-c2c(-c3ccc(F)cc3)ncn2C2CCCCC2)n1 | 0 | 0 | 0 | 0 | 0 | 0 | 0 | 0
38 | Nc1ncnc2c1c(COc1cccc(Cl)c1)nn2C1CCOCC1 | 0.2 | 0.8 | 0 | 0 | 0 | 0 | 0.7 | 0
39 | O=C(NC[C@H](O)CN1CCc2ccccc2C1)c1cc(NC2COC2)ncn1 | 0.4 | 0 | 0.3 | 0 | 4.7 | 1.4 | 0.5 | 0
40 | O=C(NCc1ccncc1)C12CC3CC(C1)CC(c1ccc(Cl)cc1)(C3)C2 | 2 | 4.3 | 2.6 | 6.1 | 5.2 | 7.6 | 1.2 | 2
41 | O=C(NOC[C@H](O)CO)c1ccc(F)c(F)c1Nc1ccc(I)cc1F | 14.5 | 3.8 | 18 | 18.6 | 0.5 | 26.8 | 11.4 | 11.1
42 | O=C(O)c1ccc(-c2c[nH]c3ncc(-c4ccccc4)cc23)cc1C1CCCC1 | 0 | 0 | 0.7 | 1.2 | 0 | 0 | 0 | 0
43 | O=C(O)c1ccc(CN2CCC(CN[C@@H]3C[C@H]3c3ccccc3)CC2)cc1 | 0 | 0 | 0 | 0 | 0 | 0 | 0 | 0
44 | O=C1Cc2cc(C(=O)NC3C[C@H]4CC[C@@H](C3)N4S(=O)(=O)CC3CCN(CCCC(F)(F)F)CC3)c(Cl)cc2N1 (stereo not given in full) | 0 | 0 | 0.2 | 0 | 0.3 | 0.7 | 0 | 0
45 | O=c1[nH]c(C2CCCN2)nc2c1oc1ccc(Cl)cc12 (stereo not given) | 0.5 | 0 | 0 | 0.7 | 0 | 0 | 0 | 0
